The results in this text go back to US20210207161A1, “PLANTS CONTAINING ELITE EVENT EE-GM5 AND METHODS AND KITS FOR IDENTIFYING SUCH EVENT IN BIOLOGICAL SAMPLES, AND TREATMENT THEREOF” (priority 2018, published 2021).

In series [1] the test system is soybean plants containing event EE-GM5. The series can be described thus: HPPD inhibitor herbicide tolerance field trials (maximum phytotoxicity). Format: in vivo, soybean (Glycine max). The conditions noted are these: 3rd year.
Series [2] has the same test system. The description is as above. Format: in vivo, soybean (Glycine max). The conditions noted are these: for average maximum phytotoxicity value: several field trials across 2 years; for tolerance of plants with EE-GM5 to the herbicide: field, different locations over 2 years. The text has this: Numbers in ( ) below a treatment give the number of trials included in the bar, the number on top of each bar gives the average maximum phytotoxicity value for that treatment. Treatments applied were: IFT=isoxaflutole, MST=mesotrione, PE=pre-emergence, P0=post-emergence (at V2-V3 stage, with adjuvants crop oil concentrate and ammonium sulfate added to increase herbicide activity). Rates shown are in gram active ingredient/hectare (4× dose in pre-emergence, 2× dose in post-emergence).
Tolerance of plants comprising EE-GM5 to HPPD inhibitor herbicides was tested at different locations in the field over 2 years. […] All post-emergence treatments were at the V2-V3 stage, with adjuvants crop oil concentrate and ammonium sulfate added to increase herbicide activity.
The “maximum phytotoxicity” as used herein is the highest phytotoxicity rating recorded at any observation during the duration of a trial (with 3 to 4 observations per trial). In existing weed control applications, a normal (lx) dose for isoxaflutole (IFT) in pre- or post-emergence application and for MST in post-emergence application is 105 gr/ha, and a normal (lx) dose for mesotrione in pre-emergence application is 210 gr/ha.
Also, in several field trials across 2 years, soybean plants with event EE-GM5 had good tolerance towards experimental HPPD inhibitor compound 2-methyl-N-(5-methyl-1,3,4-oxadiazol-2-yl)-3-(methylsulfonyl)-4-(trifluoromethyl)benzamide (U.S. Pat. No. 9,101,141) when applied pre-emergence at 400 gr ai/ha or post-emergence at 200 gr ai/ha, respectively (the average maximum phytotoxicity value for each treatment was below 20%). […] All post-emergence treatments were at the V2-V3 stage, with adjuvants crop oil concentrate and ammonium sulfate added to increase herbicide activity.
Also, plants with EE-GM5 when treated post-emergent (V2-V3) with topramezone at 36 g ai/ha (+COC and AMS) in 2 field trials in the US gave an average maximum phytotoxicity of 11%, showing EE-GM5 also confers good tolerance to this HPPD inhibitor.

Where [3] appears, read: applied post-emergence (V2-V3 stage, with adjuvants).

As for `CSc1c(C(F)(F)F)ccc(C(=O)Nc2nnnn2C)c1Cl` [2-chloro-3-(methylsulfanyl)-N-(1-methyl-1H-tetrazol-5-yl)-4-(trifluoromethyl)benzamide], the average maximum phytotoxicity in series [1] (post-emergence at 150 g/ha, 3 field trial locations, Thorne background) was 13.3%; in series [2] (post-emergence (V2-V3) at 100-150 gr ai/ha, with crop oil concentrate and ammonium sulfate), 20%.

Consider `Cc1nnc(NC(=O)c2ccc(C(F)(F)F)c(S(C)(=O)=O)c2C)o1` [2-methyl-N-(5-methyl-1,3,4-oxadiazol-2-yl)-3-(methylsulfonyl)-4-(trifluoromethyl)benzamide], for which the “average maximum phytotoxicity value” is “below 20%” in series [2] (post-emergence (V2-V3) at 200 gr ai/ha, with crop oil concentrate and ammonium sulfate); “below 20%” in series [2] (pre-emergence at 400 gr ai/ha).

As to `CS(=O)(=O)c1cc(C(F)(F)F)ccc1C(=O)c1cnoc1C1CC1` [isoxaflutole, (5-cyclopropyl-4-isoxazolyl)[2-(methylsulfonyl)-4-(trifluoromethyl)phenyl]methanone], in series [1] (post-emergence (V2-V3 stage), 210 h/ha, 4 locations, EE-GM5 in Thorne background), the average maximum phytotoxicity stood at 10.9%. This compound also displayed a maximum phytotoxicity in series [1] (pre-emergence, 410 g/ha, one field trial location, EE-GM5 in Thorne background) of 9%. Besides, the “tolerance of plants with EE-GM5 to the herbicide” value in series [2] (setting [3]) and in series [2] (applied pre-emergence) was “commercially relevant tolerance” throughout.

On to `CS(=O)(=O)c1ccc(C(=O)C2C(=O)CCCC2=O)c([N+](=O)[O-])c1` [mesotrione, 2-[4-(Methylsulfonyl)-2-nitrobenzoyl]cyclohexane-1,3-dione], for which the “tolerance of plants with EE-GM5 to the herbicide” value in series [2] (setting [3]) and in series [2] (applied pre-emergence) was “commercially relevant tolerance” throughout.

Compound `Cc1c(C(=O)c2cnn(C)c2O)ccc(S(C)(=O)=O)c1C1=NOCC1` [topramezone, [3-(4,5-dihydro-3-isoxazolyl)-2-methyl-4-(methylsulfonyl)phenyl](5-hydroxy-1-methyl-1H-pyrazol-4-yl)methanone] yielded an average maximum phytotoxicity in series [2] (post-emergent (V2-V3) at 36 g ai/ha (+COC and AMS), 2 field trials in the US) of 11%.
